Key:
[1] = molecular target: Beta-2 adrenergic receptor (Homo sapiens) (UniProt P07550); conditions: Compound concentration 10.0 uM
[2] = molecular target: Histamine H1 receptor (Homo sapiens) (UniProt P35367); conditions: Compound concentration 10.0 uM
[3] = molecular target: Casein kinase I (Homo sapiens) (UniProt Q9HCP0+P78368+P48730+P49674+P48729); assay: CK1 DUNDEE kinase screen (BI); format: protein assay; conditions: Rattus norvegicus; Compound concentration 10.0 uM
[4] = molecular target: Ephrin type-A receptor 4 (Homo sapiens) (UniProt P54764); conditions: Compound concentration 1.0 uM
[5] = molecular target: Interstitial collagenase (Homo sapiens) (UniProt P03956); conditions: Compound concentration 10.0 uM
[6] = molecular target: 5-hydroxytryptamine receptor 2A (Homo sapiens) (UniProt P28223); conditions: Compound concentration 10.0 uM
[7] = molecular target: Rho-associated protein kinase 2 (Homo sapiens) (UniProt O75116); conditions: Compound concentration 1.0 uM
[8] = molecular target: Serine/threonine-protein kinase PLK1 (Homo sapiens) (UniProt P53350)
Sequence of Serine/threonine-protein kinase PLK1 (Homo sapiens) (P53350 whole entry): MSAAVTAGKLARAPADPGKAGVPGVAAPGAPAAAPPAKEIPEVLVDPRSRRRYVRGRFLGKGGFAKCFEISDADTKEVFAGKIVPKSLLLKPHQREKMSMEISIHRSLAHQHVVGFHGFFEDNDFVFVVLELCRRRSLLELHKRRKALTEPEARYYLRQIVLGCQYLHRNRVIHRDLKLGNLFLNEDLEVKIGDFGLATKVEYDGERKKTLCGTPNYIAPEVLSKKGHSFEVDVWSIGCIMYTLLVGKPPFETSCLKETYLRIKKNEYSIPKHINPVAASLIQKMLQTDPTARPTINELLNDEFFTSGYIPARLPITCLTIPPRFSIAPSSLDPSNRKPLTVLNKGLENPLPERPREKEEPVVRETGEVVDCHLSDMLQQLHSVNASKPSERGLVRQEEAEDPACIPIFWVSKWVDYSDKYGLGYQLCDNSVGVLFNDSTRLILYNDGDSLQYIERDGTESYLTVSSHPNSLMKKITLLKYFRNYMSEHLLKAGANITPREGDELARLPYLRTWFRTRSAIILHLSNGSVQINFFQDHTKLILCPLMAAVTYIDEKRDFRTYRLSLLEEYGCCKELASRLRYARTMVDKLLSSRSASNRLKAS

[9] = molecular target: Myosin-IIIb (Homo sapiens) (UniProt Q8WXR4); conditions: Compound concentration 1.0 uM
[10] = molecular target: Mast/stem cell growth factor receptor Kit (Homo sapiens) (UniProt P10721)
Sequence of Mast/stem cell growth factor receptor Kit (Homo sapiens) (P10721 whole entry): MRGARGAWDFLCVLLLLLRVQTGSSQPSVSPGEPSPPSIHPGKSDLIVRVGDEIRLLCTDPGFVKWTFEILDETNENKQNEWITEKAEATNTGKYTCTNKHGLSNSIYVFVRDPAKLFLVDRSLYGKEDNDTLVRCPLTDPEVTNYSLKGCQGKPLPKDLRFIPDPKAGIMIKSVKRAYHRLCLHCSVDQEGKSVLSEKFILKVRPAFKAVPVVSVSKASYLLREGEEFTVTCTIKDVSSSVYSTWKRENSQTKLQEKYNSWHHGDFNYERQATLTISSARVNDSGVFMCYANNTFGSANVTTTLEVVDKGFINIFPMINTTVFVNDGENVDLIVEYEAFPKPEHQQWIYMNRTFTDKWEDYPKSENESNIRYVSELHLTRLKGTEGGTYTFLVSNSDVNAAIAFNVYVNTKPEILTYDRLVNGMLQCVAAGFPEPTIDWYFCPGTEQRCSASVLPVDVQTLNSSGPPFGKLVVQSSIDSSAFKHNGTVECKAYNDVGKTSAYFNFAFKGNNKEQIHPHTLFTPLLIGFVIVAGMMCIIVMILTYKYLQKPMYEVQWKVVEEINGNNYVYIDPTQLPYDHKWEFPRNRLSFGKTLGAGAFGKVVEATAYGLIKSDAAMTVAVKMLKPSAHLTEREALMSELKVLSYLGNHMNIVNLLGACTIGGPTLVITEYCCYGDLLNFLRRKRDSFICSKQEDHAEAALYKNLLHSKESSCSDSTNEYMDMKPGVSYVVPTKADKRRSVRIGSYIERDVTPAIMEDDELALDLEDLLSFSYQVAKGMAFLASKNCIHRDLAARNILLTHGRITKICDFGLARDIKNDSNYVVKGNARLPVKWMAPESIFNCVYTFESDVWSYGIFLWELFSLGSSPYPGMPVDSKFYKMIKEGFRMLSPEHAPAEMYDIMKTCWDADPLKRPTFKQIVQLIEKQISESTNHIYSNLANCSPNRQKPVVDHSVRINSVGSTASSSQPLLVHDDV

[11] = molecular target: Tyrosine-protein kinase Lyn (Homo sapiens) (UniProt P07948); assay: LYN B Invitrogen Lab (UK) kinase screen (BI); conditions: Compound concentration 1.0 uM
[12] = molecular target: Ribosomal protein S6 kinase alpha-5 (Homo sapiens) (UniProt O75582); assay: RPS6KA5 Invitrogen Lab (UK) kinase screen (BI); conditions: Compound concentration 1.0 uM
[13] = molecular target: Serine/threonine-protein kinase TAO3 (Homo sapiens) (UniProt Q9H2K8); conditions: Compound concentration 1.0 uM
[14] = molecular target: Muscarinic acetylcholine receptor M4 (Homo sapiens) (UniProt P08173); conditions: Compound concentration 10.0 uM
[15] = molecular target: Inhibitor of nuclear factor kappa-B kinase subunit epsilon (Homo sapiens) (UniProt Q14164)
Sequence of Inhibitor of nuclear factor kappa-B kinase subunit epsilon (Homo sapiens) (Q14164 whole entry, the tested form may be a part): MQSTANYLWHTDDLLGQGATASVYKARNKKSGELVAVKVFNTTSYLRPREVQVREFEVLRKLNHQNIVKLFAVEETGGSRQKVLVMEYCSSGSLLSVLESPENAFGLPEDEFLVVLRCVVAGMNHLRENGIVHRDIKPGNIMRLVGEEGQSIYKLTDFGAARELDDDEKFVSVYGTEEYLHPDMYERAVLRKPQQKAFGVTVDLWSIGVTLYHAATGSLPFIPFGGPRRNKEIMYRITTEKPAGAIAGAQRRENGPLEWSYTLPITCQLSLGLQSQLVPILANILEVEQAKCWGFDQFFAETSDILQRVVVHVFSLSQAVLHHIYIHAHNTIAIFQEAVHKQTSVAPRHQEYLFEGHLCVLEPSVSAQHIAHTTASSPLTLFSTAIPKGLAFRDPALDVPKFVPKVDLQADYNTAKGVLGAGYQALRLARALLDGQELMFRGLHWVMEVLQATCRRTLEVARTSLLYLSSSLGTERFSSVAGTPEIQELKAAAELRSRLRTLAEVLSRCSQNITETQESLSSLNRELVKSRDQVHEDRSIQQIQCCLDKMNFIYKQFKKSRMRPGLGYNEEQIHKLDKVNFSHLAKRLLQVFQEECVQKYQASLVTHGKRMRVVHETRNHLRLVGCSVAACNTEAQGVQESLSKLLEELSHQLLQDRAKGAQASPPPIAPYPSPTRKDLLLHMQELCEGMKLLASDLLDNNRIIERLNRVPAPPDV

[16] = molecular target: Epithelial discoidin domain-containing receptor 1 (Homo sapiens) (UniProt Q08345); assay: DDR1 Invitrogen Lab (UK) kinase screen (BI); conditions: Compound concentration 1.0 uM
[17] = molecular target: Vasopressin V1a receptor (Homo sapiens) (UniProt P37288)
Sequence of Vasopressin V1a receptor (Homo sapiens) (P37288 whole entry, looked up): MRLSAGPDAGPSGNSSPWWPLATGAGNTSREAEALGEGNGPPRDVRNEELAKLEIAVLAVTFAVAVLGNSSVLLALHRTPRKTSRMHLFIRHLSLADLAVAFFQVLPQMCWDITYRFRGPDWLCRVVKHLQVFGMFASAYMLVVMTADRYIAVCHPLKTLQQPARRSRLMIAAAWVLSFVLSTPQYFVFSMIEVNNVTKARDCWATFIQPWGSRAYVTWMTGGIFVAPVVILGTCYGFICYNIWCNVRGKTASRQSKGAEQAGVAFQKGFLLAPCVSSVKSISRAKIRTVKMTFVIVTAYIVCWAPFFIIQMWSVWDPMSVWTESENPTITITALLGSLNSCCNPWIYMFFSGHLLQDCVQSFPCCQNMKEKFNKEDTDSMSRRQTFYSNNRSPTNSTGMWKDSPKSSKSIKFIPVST

[18] = molecular target: Sodium/potassium-transporting ATPase (Sus scrofa) (UniProt P05027+P05024+D2WKD8+D2WKD7+F1ST41); conditions: Compound concentration 10.0 uM
[19] = molecular target: Ephrin type-A receptor 3 (Homo sapiens) (UniProt P29320); assay: EPHA3 Invitrogen Lab (UK) kinase screen (BI); conditions: Compound concentration 1.0 uM
[20] = molecular target: Dual specificity tyrosine-phosphorylation-regulated kinase 1B (Homo sapiens) (UniProt Q9Y463)
Sequence of Dual specificity tyrosine-phosphorylation-regulated kinase 1B (Homo sapiens) (Q9Y463 whole entry, looked up): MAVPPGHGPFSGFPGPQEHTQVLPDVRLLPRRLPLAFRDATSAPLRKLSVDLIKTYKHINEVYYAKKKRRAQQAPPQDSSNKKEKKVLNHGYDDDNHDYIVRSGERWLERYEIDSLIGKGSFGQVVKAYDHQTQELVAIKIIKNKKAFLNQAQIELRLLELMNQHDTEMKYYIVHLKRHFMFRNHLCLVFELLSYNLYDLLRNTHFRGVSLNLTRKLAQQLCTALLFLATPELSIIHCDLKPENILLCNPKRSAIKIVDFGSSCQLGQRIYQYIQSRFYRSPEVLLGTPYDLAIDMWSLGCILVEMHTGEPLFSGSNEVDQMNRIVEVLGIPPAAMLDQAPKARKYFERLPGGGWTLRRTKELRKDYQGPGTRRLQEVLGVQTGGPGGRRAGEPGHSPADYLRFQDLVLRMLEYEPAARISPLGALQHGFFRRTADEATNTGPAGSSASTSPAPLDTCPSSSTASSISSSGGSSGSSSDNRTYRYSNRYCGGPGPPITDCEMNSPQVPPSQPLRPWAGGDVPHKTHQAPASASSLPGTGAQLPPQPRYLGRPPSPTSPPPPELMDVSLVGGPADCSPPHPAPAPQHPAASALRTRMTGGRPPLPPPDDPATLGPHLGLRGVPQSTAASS

[21] = molecular target: Fibroblast growth factor receptor 4 (Homo sapiens) (UniProt P22455); conditions: Compound concentration 1.0 uM
[22] = molecular target: Serine/threonine-protein kinase VRK2 (Homo sapiens) (UniProt Q86Y07); conditions: Compound concentration 1.0 uM
[23] = molecular target: Myosin light chain kinase family member 4 (Homo sapiens) (UniProt Q86YV6); assay: MYLK4 Invitrogen Lab (UK) kinase screen (BI); conditions: Compound concentration 1.0 uM
[24] = molecular target: Focal adhesion kinase 1 (Homo sapiens) (UniProt Q05397); conditions: Compound concentration 1.0 uM
[25] = molecular target: Angiotensin-converting enzyme (Oryctolagus cuniculus) (UniProt P12822); conditions: Compound concentration 10.0 uM
[26] = molecular target: Serine/threonine-protein kinase D2 (Homo sapiens) (UniProt Q9BZL6); conditions: Compound concentration 1.0 uM
Sequence of Serine/threonine-protein kinase D2 (Homo sapiens) (Q9BZL6 whole entry): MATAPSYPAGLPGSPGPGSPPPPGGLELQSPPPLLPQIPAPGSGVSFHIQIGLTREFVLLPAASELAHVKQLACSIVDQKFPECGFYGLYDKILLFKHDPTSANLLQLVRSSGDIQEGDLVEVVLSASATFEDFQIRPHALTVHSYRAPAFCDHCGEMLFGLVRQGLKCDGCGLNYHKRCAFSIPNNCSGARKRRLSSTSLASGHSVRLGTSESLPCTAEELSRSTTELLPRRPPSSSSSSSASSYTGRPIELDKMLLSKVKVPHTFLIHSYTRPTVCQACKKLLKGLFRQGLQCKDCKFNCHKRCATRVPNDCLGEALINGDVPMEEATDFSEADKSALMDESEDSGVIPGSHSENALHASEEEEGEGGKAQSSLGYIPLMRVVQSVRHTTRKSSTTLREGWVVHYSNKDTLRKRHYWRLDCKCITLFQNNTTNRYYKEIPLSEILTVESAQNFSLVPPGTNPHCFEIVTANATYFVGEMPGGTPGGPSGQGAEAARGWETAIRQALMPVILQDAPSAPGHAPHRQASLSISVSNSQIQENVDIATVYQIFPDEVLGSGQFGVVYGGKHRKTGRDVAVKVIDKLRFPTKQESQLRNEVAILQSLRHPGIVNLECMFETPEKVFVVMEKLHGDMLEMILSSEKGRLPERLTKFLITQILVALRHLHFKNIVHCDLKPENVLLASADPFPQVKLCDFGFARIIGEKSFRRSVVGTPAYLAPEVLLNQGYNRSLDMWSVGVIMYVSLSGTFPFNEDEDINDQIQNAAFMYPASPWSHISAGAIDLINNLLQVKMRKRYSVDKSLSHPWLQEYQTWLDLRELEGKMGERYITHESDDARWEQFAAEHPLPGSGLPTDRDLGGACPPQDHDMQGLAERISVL

[27] = molecular target: Serine/threonine-protein kinase SBK1 (Homo sapiens) (UniProt Q52WX2); conditions: Compound concentration 1.0 uM
[28] = molecular target: 5-hydroxytryptamine receptor 6 (Homo sapiens) (UniProt P50406); conditions: Compound concentration 10.0 uM
[29] = molecular target: Cathepsin G (Homo sapiens) (UniProt P08311); assay: PEPCATHEPSG Eurofins SafetyScreen44 (BI); conditions: Compound concentration 10.0 uM
Sequence of Cathepsin G (Homo sapiens) (P08311 whole entry): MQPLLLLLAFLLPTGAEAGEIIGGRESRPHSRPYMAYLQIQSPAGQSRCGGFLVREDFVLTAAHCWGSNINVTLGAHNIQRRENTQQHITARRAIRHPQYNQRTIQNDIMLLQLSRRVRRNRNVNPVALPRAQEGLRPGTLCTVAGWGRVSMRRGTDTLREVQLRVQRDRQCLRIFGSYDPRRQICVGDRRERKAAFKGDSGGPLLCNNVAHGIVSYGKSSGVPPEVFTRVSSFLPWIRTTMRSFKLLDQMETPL

[30] = molecular target: Tyrosine-protein kinase JAK2 (Homo sapiens) (UniProt O60674); conditions: Compound concentration 1.0 uM
[31] = molecular target: Tyrosine-protein kinase Fyn (Homo sapiens) (UniProt P06241); conditions: Compound concentration 1.0 uM
[32] = molecular target: Serine/threonine-protein kinase SIK3 (Homo sapiens) (UniProt Q9Y2K2); assay: SIK3 Invitrogen Lab (UK) kinase screen (BI); conditions: Compound concentration 1.0 uM
[33] = molecular target: AMP-activated protein kinase alpha-2/beta-1/gamma-3 (Homo sapiens) (UniProt P54646+Q9Y478+Q9UGI9); conditions: Compound concentration 1.0 uM
[34] = molecular target: Voltage-dependent N-type calcium channel subunit alpha-1B (Rattus norvegicus) (UniProt Q02294); assay: CA+/N/RA Eurofins SafetyScreen44 (BI); conditions: Compound concentration 10.0 uM
[35] = molecular target: Tyrosine-protein kinase CSK (Homo sapiens) (UniProt P41240); assay: CSK DUNDEE kinase screen (BI); conditions: Compound concentration 10.0 uM
[36] = molecular target: Renin (Homo sapiens) (UniProt P00797); conditions: Compound concentration 10.0 uM
[37] = molecular target: Mitogen-activated protein kinase 8 (Homo sapiens) (UniProt P45983)
Sequence of Mitogen-activated protein kinase 8 (Homo sapiens) (P45983 whole entry): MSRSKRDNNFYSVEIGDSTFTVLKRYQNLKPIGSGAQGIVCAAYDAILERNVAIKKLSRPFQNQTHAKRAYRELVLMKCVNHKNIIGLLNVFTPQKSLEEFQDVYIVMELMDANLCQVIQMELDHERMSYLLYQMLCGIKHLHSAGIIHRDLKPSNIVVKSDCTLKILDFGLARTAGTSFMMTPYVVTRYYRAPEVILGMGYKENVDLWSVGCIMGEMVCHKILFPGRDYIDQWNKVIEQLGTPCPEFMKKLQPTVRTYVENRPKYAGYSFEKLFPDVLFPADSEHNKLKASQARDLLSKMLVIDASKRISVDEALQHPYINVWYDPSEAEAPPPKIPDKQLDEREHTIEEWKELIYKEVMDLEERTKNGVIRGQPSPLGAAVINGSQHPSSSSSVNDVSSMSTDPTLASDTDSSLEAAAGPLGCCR

[38] = molecular target: 3-phosphoinositide-dependent protein kinase 1 (Homo sapiens) (UniProt O15530); conditions: Compound concentration 1.0 uM
[39] = molecular target: 5-hydroxytryptamine receptor 7 (Homo sapiens) (UniProt P34969); conditions: Compound concentration 10.0 uM
[40] = molecular target: Phosphatidylinositol 4,5-bisphosphate 3-kinase catalytic subunit gamma isoform (Homo sapiens) (UniProt P48736); assay: PIK3CG Invitrogen Lab (UK) kinase screen (BI); conditions: Compound concentration 1.0 uM
[41] = molecular target: Cyclin-dependent kinase 2/cyclin E1 (Homo sapiens) (UniProt P24864+P24941); conditions: Compound concentration 1.0 uM
[42] = tested on: Serine/threonine-protein kinase B-raf (Homo sapiens), P15056 [V600E]; assay: BRAF V599E Invitrogen Lab (UK) kinase screen (BI); conditions: Compound concentration 10.0 uM
[43] = species on record: Rattus norvegicus; conditions: Compound concentration 10.0 uM

CCC(F)(F)c1cc(N2CCC(S(C)(=O)=O)CC2)nc2sc(C(N)=O)c(N)c12 [BI-605906]
inhibition [1]: 8.96% | residual activity [2]: 95% | residual activity [3]: 68.6% | residual activity [4]: 93% | residual activity [5]: 94% | inhibition [6]: 6.1% | residual activity [7]: 96% | residual activity ([8]; Compound concentration 1.0 uM): 94% | residual activity ([8]; Compound concentration 10.0 uM): 109% | residual activity [9]: 90% | residual activity ([10]; Compound concentration 1.0 uM): 89% | residual activity ([10]; Compound concentration 10.0 uM): 83% | residual activity [11]: 78% | residual activity [12]: 102% | residual activity [13]: 93% | inhibition [14]: 13.3% | residual activity ([15]; Compound concentration 1.0 uM): 98% | residual activity ([15]; Compound concentration 10.0 uM): 98% | residual activity [16]: 84% | residual activity ([17]; Compound concentration 10.0 uM): 99% | residual activity ([17]; Compound concentration 100.0 uM): 89% | residual activity [18]: 105% | residual activity [19]: 85% | residual activity ([20]; Compound concentration 1.0 uM): 95% | residual activity ([20]; Compound concentration 10.0 uM): 91% | residual activity [21]: 96% | residual activity [22]: 82% | residual activity [23]: 83% | residual activity [24]: 87% | residual activity [25]: 98% | residual activity [26]: 95% | residual activity [27]: 98% | inhibition [28]: 8.77% | residual activity [29]: 106% | residual activity [30]: 94% | residual activity [31]: 97% | residual activity [32]: 79% | residual activity [33]: 89% | residual activity [34]: 86% | residual activity [35]: 78.3% | residual activity [36]: 100% | residual activity ([37]; Compound concentration 1.0 uM): 91% | residual activity ([37]; Compound concentration 10.0 uM): 100% | residual activity [38]: 82% | inhibition [39]: 13.7% | residual activity [40]: 102% | residual activity [41]: 94% | residual activity [42]: 34% | residual activity [43]: 97%

Source: ChEMBL document CHEMBL4800722, “Data for DCP probe BI 605906” (2021)
